From PubChem BioAssay (NCI)
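Method: 48-hour compound exposure of cells in 96-well plates, five concentrations, linear interpolation of endpoints. Definition used: TGI = concentration required for complete inhibition of growth.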

Key:
Experiment in all cases: growth of human tumour cells (NCI), 48 h
A498 renal = system: A498 renal
EKVX NSCLC = system: EKVX NSCLC
RXF 393 renal = system: RXF 393 renal
SF-295 CNS = system: SF-295 CNS
MOLT-4 leukemia = system: MOLT-4 leukemia
HS 578T breast = system: HS 578T breast
SK-MEL-28 melanoma = system: SK-MEL-28 melanoma
UACC-62 melanoma = system: UACC-62 melanoma
HCT-15 colon = system: HCT-15 colon
SK-OV-3 ovarian = system: SK-OV-3 ovarian
SR leukemia = system: SR leukemia
OVCAR-4 ovarian = system: OVCAR-4 ovarian
OVCAR-8 ovarian = system: OVCAR-8 ovarian
LOX IMVI melanoma = system: LOX IMVI melanoma
HOP-62 NSCLC = system: HOP-62 NSCLC
786-0 renal = system: 786-0 renal
RPMI-8226 leukemia = system: RPMI-8226 leukemia
UO-31 renal = system: UO-31 renal
U251 CNS = system: U251 CNS
SN12C renal = system: SN12C renal
NCI-H522 lung = system: NCI-H522 lung
CAKI-1 renal = system: CAKI-1 renal
COLO 205 colon = system: COLO 205 colon
SF-539 CNS = system: SF-539 CNS
MDA-N = system: MDA-N
HL-60(TB) leukemia = system: HL-60(TB) leukemia
BT-549 breast = system: BT-549 breast
MCF7 breast = system: MCF7 breast
NCI-H23 lung = system: NCI-H23 lung
SW-620 colon = system: SW-620 colon
MALME-3M melanoma = system: MALME-3M melanoma
NCI-H460 lung = system: NCI-H460 lung
HCC-2998 colon = system: HCC-2998 colon
NCI/ADR-RES ovarian = system: NCI/ADR-RES ovarian
KM12 colon = system: KM12 colon
SK-MEL-5 melanoma = system: SK-MEL-5 melanoma
M14 melanoma = system: M14 melanoma
T-47D breast = system: T-47D breast
CCRF-CEM leukemia = system: CCRF-CEM leukemia
MDA-MB-435 = system: MDA-MB-435
IGROV1 ovarian = system: IGROV1 ovarian
A549 NSCLC = system: A549 NSCLC
HCT-116 colon = system: HCT-116 colon
DU-145 prostate = system: DU-145 prostate
OVCAR-3 ovarian = system: OVCAR-3 ovarian
SNB-19 CNS = system: SNB-19 CNS
SK-MEL-2 melanoma = system: SK-MEL-2 melanoma
OVCAR-5 ovarian = system: OVCAR-5 ovarian
HOP-92 NSCLC = system: HOP-92 NSCLC
NCI-H226 lung = system: NCI-H226 lung
HT29 colon = system: HT29 colon
MDA-MB-231 breast = system: MDA-MB-231 breast
TK-10 renal = system: TK-10 renal
ACHN renal = system: ACHN renal
SF-268 CNS = system: SF-268 CNS
UACC-257 melanoma = system: UACC-257 melanoma
SNB-75 CNS = system: SNB-75 CNS
K-562 leukemia = system: K-562 leukemia
PC-3 prostate = system: PC-3 prostate

`C=CCCCCNC(=O)C[C@@H]1C2=C(CC[C@H]1O[Si](C)(C)C(C)(C)C)N1C(=O)CCC/C=C\C1C2` (stereo partly drawn) gave a TGI (A498 renal) of 28.4 µM, a TGI (EKVX NSCLC) of 31.1 µM and a TGI (RXF 393 renal) of 23.7 µM. It also gave a TGI (SF-295 CNS) of 30.2 µM, a TGI (MOLT-4 leukemia) of 20 µM and a TGI (HS 578T breast) of 32.9 µM. For the same compound, the TGI (SK-MEL-28 melanoma) was 29.7 µM, the TGI (UACC-62 melanoma) was 25.5 µM and the TGI (HCT-15 colon) was 27 µM. The TGI (SK-OV-3 ovarian) was 31.1 µM, the TGI (SR leukemia) was 23.4 µM and the TGI (OVCAR-4 ovarian) was 25 µM. It also gave a TGI (OVCAR-8 ovarian) of 28.2 µM, a TGI (LOX IMVI melanoma) of 31.4 µM and a TGI (HOP-62 NSCLC) of 35.5 µM. For the same compound, the TGI (786-0 renal) was 28.7 µM, the TGI (RPMI-8226 leukemia) was 22.1 µM and the TGI (UO-31 renal) was 27.2 µM. For the same compound, the TGI (U251 CNS) was 26.3 µM, the TGI (SN12C renal) was 28.8 µM and the TGI (NCI-H522 lung) was 24.7 µM. For the same compound, the TGI (CAKI-1 renal) was 24.8 µM, the TGI (COLO 205 colon) was 26.7 µM and the TGI (SF-539 CNS) was 31.3 µM. The TGI (MDA-N) was 29.8 µM, the TGI (HL-60(TB) leukemia) was 13.6 µM and the TGI (BT-549 breast) was 30.1 µM. For the same compound, the TGI (MCF7 breast) was 24.7 µM, the TGI (NCI-H23 lung) was 27.7 µM and the TGI (SW-620 colon) was 27.4 µM. The TGI (MALME-3M melanoma) was 28.2 µM, the TGI (NCI-H460 lung) was 27.9 µM and the TGI (HCC-2998 colon) was 22.1 µM. It also gave a TGI (NCI/ADR-RES ovarian) of 24.7 µM, a TGI (KM12 colon) of 28.2 µM and a TGI (SK-MEL-5 melanoma) of 27.1 µM. For the same compound, the TGI (M14 melanoma) was 27.4 µM, the TGI (T-47D breast) was 29.8 µM and the TGI (CCRF-CEM leukemia) was 25.7 µM. It also gave a TGI (MDA-MB-435) of 28.4 µM, a TGI (IGROV1 ovarian) of 29.7 µM and a TGI (A549 NSCLC) of 25.8 µM. It also gave a TGI (HCT-116 colon) of 26 µM, a TGI (DU-145 prostate) of 30.1 µM and a TGI (OVCAR-3 ovarian) of 28 µM. The TGI (SNB-19 CNS) was 27.4 µM, the TGI (SK-MEL-2 melanoma) was 26.1 µM and the TGI (OVCAR-5 ovarian) was 29.5 µM. It also gave a TGI (HOP-92 NSCLC) of 23.1 µM, a TGI (NCI-H226 lung) of 29.9 µM and a TGI (HT29 colon) of 24.7 µM. The TGI (MDA-MB-231 breast) was 26.1 µM, the TGI (TK-10 renal) was 29.6 µM and the TGI (ACHN renal) was 28.7 µM. The TGI (SF-268 CNS) was 29.9 µM, the TGI (UACC-257 melanoma) was 25.8 µM and the TGI (SNB-75 CNS) was 30.7 µM. For the same compound, the TGI (K-562 leukemia) was 20.9 µM and the TGI (PC-3 prostate) was 24.4 µM.
`N#CC1CCCC2SC(F)(F)C(F)(F)C12` (stereo not drawn) was tested, and the TGI (A498 renal) was > 100 µM, the TGI (EKVX NSCLC) was > 100 µM and the TGI (RXF 393 renal) was > 100 µM. For the same compound, the TGI (SF-295 CNS) was > 100 µM, the TGI (MOLT-4 leukemia) was 99.3 µM and the TGI (HS 578T breast) was > 100 µM. For the same compound, the TGI (SK-MEL-28 melanoma) was > 100 µM, the TGI (UACC-62 melanoma) was > 100 µM and the TGI (HCT-15 colon) was > 100 µM. The TGI (SK-OV-3 ovarian) was > 100 µM, the TGI (SR leukemia) was 72.7 µM and the TGI (OVCAR-4 ovarian) was > 100 µM. The TGI (OVCAR-8 ovarian) was > 100 µM, the TGI (LOX IMVI melanoma) was > 100 µM and the TGI (HOP-62 NSCLC) was > 100 µM. For the same compound, the TGI (786-0 renal) was > 100 µM, the TGI (RPMI-8226 leukemia) was > 100 µM and the TGI (UO-31 renal) was > 100 µM. For the same compound, the TGI (U251 CNS) was > 100 µM, the TGI (SN12C renal) was > 100 µM and the TGI (NCI-H522 lung) was > 100 µM. For the same compound, the TGI (CAKI-1 renal) was > 100 µM, the TGI (COLO 205 colon) was > 100 µM and the TGI (SF-539 CNS) was > 100 µM. The TGI (MDA-N) was > 100 µM, the TGI (HL-60(TB) leukemia) was 54.9 µM and the TGI (BT-549 breast) was > 100 µM. The TGI (MCF7 breast) was > 100 µM, the TGI (NCI-H23 lung) was > 100 µM and the TGI (SW-620 colon) was > 100 µM. For the same compound, the TGI (MALME-3M melanoma) was > 100 µM, the TGI (NCI-H460 lung) was > 100 µM and the TGI (HCC-2998 colon) was > 100 µM. The TGI (NCI/ADR-RES ovarian) was > 100 µM, the TGI (KM12 colon) was > 100 µM and the TGI (SK-MEL-5 melanoma) was > 100 µM. The TGI (M14 melanoma) was > 100 µM, the TGI (T-47D breast) was > 100 µM and the TGI (CCRF-CEM leukemia) was > 66.7 µM. The TGI (MDA-MB-435) was > 100 µM, the TGI (IGROV1 ovarian) was > 100 µM and the TGI (A549 NSCLC) was > 100 µM. For the same compound, the TGI (HCT-116 colon) was > 100 µM, the TGI (DU-145 prostate) was > 100 µM and the TGI (OVCAR-3 ovarian) was > 100 µM. For the same compound, the TGI (SNB-19 CNS) was > 100 µM, the TGI (SK-MEL-2 melanoma) was > 100 µM and the TGI (OVCAR-5 ovarian) was > 100 µM. For the same compound, the TGI (HOP-92 NSCLC) was > 100 µM, the TGI (NCI-H226 lung) was > 100 µM and the TGI (HT29 colon) was > 100 µM. For the same compound, the TGI (MDA-MB-231 breast) was > 100 µM, the TGI (TK-10 renal) was > 100 µM and the TGI (ACHN renal) was > 100 µM. The TGI (SF-268 CNS) was > 100 µM, the TGI (UACC-257 melanoma) was > 100 µM and the TGI (SNB-75 CNS) was > 100 µM. The TGI (K-562 leukemia) was > 78.3 µM and the TGI (PC-3 prostate) was > 100 µM.
